For this assay, the system named is Plasmodium falciparum. Put plainly: GSK_TCMDC: Inhibition of Plasmodium falciparum 3D7 in whole erythrocytes, using parasite LDH activity as an index of growth. It is filed as functional, organism-based. To be noted: Plasmodium falciparum, 3D7.
On to `CN(Cc1ccc(-c2ccc(C(F)(F)F)cc2)cc1)C(=O)Cn1c(CCc2cccc(F)c2F)nc(=O)c2ccc(N3CCN(CCN4CCCCC4)CC3)nc21`, for which the XC50 amounted to 764 nM.

Compound `O=C(Cn1c(CCc2cccc(F)c2F)nc(=O)c2ccccc21)N(CCN1CCCC1)Cc1ccc(-c2ccc(C(F)(F)F)cc2)cc1` displayed an XC50 of 711 nM.

In turn, `O=C(Nc1ccc(Br)c(C(F)(F)F)c1)c1cccc([N+](=O)[O-])c1` had an XC50 of 914 nM.

Regarding `CCN(CCCN1CCCCC1)c1cc(C)nc(Nc2cc(Br)ccc2C)n1`, the XC50 was determined as 405 nM.

Compound `Cc1c(-c2ccc(C(=O)NC3CC(C)(C)NC(C)(C)C3)cc2)[nH]c2cc(Cl)c(Cl)cc12` had an XC50 of 751 nM.

Compound `O=c1nc(NCCCNCc2cc3c(Cl)cc(Cl)cc3[nH]2)[nH]c2ccsc12` had an XC50 of 1120 nM.

In turn, `COc1ccc2nccc([C@@H](O)CN3CCC(NCc4cc5ccc(C#N)cc5[nH]4)CC3)c2c1` displayed an XC50 of 95 nM.

Consider `c1cc(CN2CCC(CCN3CCCCC3)CC2)cc(-c2csc(-c3nc4ccccc4[nH]3)c2)c1`, for which the XC50 came out at 142 nM.

On to `COc1cccc2cc(C(=O)N[C@@H](CC(C)C)C(=O)N[C@H](C=NN3CCOC3=O)Cc3ccccc3)oc12`, for which the XC50 is 686 nM.

In the case of `CCc1c(CCNCCCCCNCCc2ccc(OC)c(OC)c2CC)ccc(OC)c1OC`, the XC50 was 1110 nM.

`COc1ccc(/C=C/C(=O)N2CCc3cc4nccc(N5CCN6CCC[C@H]6C5)c4cc32)cc1` showed an XC50 of 642 nM.

`Cc1ccccc1C(=O)Nc1cccc(-c2nc3ncccn3c2C)c1` displayed an XC50 of 765 nM.

In the case of `CC(C)CN1C(=O)c2ccc(C(=O)Nc3nccs3)cc2C1=O`, the XC50 turned out to be 971 nM.

For the compound `CN(CCCCNC(=O)c1cc2ccccc2[nH]1)C1CC2(CCN(C(=O)OC(C)(C)C)CC2)c2ccccc21` (centres undefined), the XC50 is 928 nM.

On to `Cc1cc(C(F)(F)F)nn1-c1ccc(NC(=O)c2ccco2)cc1`, for which the XC50 was 734 nM.

For the compound `O=C(Nc1ccccc1)OCCOc1ccc(CC2SC(=O)NC2=O)cc1` (centres undefined), the XC50 was found to be 371 nM.

Turning to `C/N=C(/Nc1c(Cl)cccc1Cl)N(C)C`, the XC50 worked out at 820 nM.

As for `CC(=O)Nc1cccc(C(=O)Nc2ccc(-c3cccc(-c4nc5cc(F)ccc5[nH]4)c3)cc2)c1`, the XC50 worked out at 633 nM.

As for `Cc1cc(-c2ccc3c(c2)CCN(CCC2CCC(NC(=O)/C=C/c4cccc(F)c4)CC2)CC3)on1` (centres undefined), the XC50 stood at 746 nM.

With `COc1ccc(CN2C(=S)N(Cc3ccccc3)C(=O)C2CC(=O)Nc2ccccc2)cc1OC` (centres undefined), the XC50 came out at 844 nM.

The compound `OCCNc1nc(Nc2cccc(O)c2)nc2ccccc12` came in with an XC50 of 389 nM.

In the case of `N=C(N)NN=Cc1c[nH]c2ccc(-c3ccccc3)cc12`, the XC50 was 528 nM.

In turn, `O=S(=O)(NCCN1CCCC1)c1ccc(-c2cccc(CNC3Cc4ccccc4C3)c2)s1` registered an XC50 of 746 nM.

As to `Cc1cc(C)cc(OCC(O)CN(Cc2cc(Cl)cc(Cl)c2)C(=O)Nc2ccccc2Cl)c1` (centres undefined), the XC50 stood at 944 nM.

Compound `COc1ccc2nccc([C@@H](O)CN3CCC(NC(=O)/C=C/c4cccc(NC(C)=O)c4)CC3)c2c1` showed an XC50 of 963 nM.

On to `COc1ccc2[nH]c(C)cc(=NN=Cc3cc(OC)c(OC)cc3OC)c2c1`, for which the XC50 was 739 nM.

`CNC(=O)c1cc(F)c(F)cc1Nc1nc(Nc2cccc(CS(C)(=O)=O)c2)ncc1Cl` displayed an XC50 of 1020 nM.

Consider `O=C(Nc1ccc(OC2CCN(Cc3ccsc3)C2)c(Cl)c1)c1ccco1` (centres undefined), for which the XC50 came out at 602 nM.

Regarding `Cc1cc(OCCCNc2nc(NCCc3ccc(O)cc3)nc(N3CCNCC3)n2)c(Cl)c(C)c1Cl`, the XC50 came to 956 nM.

In turn, `COc1ccccc1N(C)CCNc1cc(C)nc(Nc2ccccc2)n1` registered an XC50 of 1070 nM.

Regarding `CCOc1cc2c(cc1OCC)C(c1cc(OC)c(O)cc1Cl)NCC2` (centres undefined), the XC50 was 748 nM.

`O=C(NC1CCCCC1)N(Cc1ccccc1-c1ccc(CNCCc2ccccc2)cc1)C1CCN(Cc2ccccc2)CC1` yielded an XC50 of 930 nM.

In turn, `O=C1NC(c2ccccc2)C2(CCN(CC(O)COc3cccc4ncccc34)CC2)O1` (centres undefined) displayed an XC50 of 743 nM.

Regarding `O=C(Nc1ccc(-c2ccccc2)s1)N[C@H]1CCN(Cc2ccc(OCCCN3CCCCC3)cc2)C1`, the XC50 came out at 742 nM.

Turning to `COc1ccc(Nc2nc(NC3CCCC3)cc(-c3ccc(OC)cc3)n2)cc1`, the XC50 came to 1030 nM.

Take `CN(C)c1ccc(CN2CCC(CNC(=O)c3cc(-c4ccccc4F)cs3)C2)cc1` (centres undefined): the XC50 turned out to be 911 nM.

`Cc1ccc(OC2CCN(CCCCC3(C)C(=O)Nc4ccccc43)CC2)cc1` (centres undefined) showed an XC50 of 743 nM.

As for `CN1CCN(CC(=O)Nc2ccc(-c3ccc(-c4nc5cc(C(F)(F)F)ccc5[nH]4)s3)cc2)CC1`, the XC50 was found to be 569 nM.

As for `O=C1NC(=O)C(c2ccc(Cl)cc2)=C1Nc1cccc(S(=O)(=O)C(F)(F)F)c1`, the XC50 amounted to 744 nM.

On to `Cc1cc(N[C@@H](Cc2ccccc2)C(=O)NCc2cccs2)nc(NCCc2ccccn2)n1`, for which the XC50 amounted to 1280 nM.

The compound `CN1CCC(Oc2ccc(CN3CC[C@H](NC(=O)c4cccc(C#N)c4)C3)c3ccccc23)C1` (some centres undefined) displayed an XC50 of 804 nM.

`COC(=O)Nc1cc(C(F)(F)F)ccc1N1CCC(CNS(=O)(=O)c2ccc(OC)cc2)CC1` had an XC50 of 249 nM.

Regarding `Cc1noc(-c2ccc3c(c2)CCN(CCC2CCC(NC(=O)c4cc5ccccc5[nH]4)CC2)CC3)n1` (centres undefined), the XC50 turned out to be 689 nM.

`CCN(CC)CCCC(C)Nc1ccnc2ccc(-c3ccccc3)cc12` (centres undefined) showed an XC50 of 652 nM.

Take `COC(=O)COc1cc(C(=O)NCCCCN2CCC(c3ccc4c(c3OC)CCCC4)CC2)ccc1-c1ccc(Cl)cc1`: the XC50 was found to be 257 nM.

`CCCN1CCCN(Cc2cccc(NC(=O)c3ccc(-c4ccccc4)cc3)c2)CC1` came in with an XC50 of 1110 nM.

As for `CC(C)N1CCN(C(CN2CCN(CCCOc3ccc4nonc4c3)CC2)c2ccc(F)cc2)CC1` (centres undefined), the XC50 was found to be 796 nM.

`Cc1nnsc1C(=O)Nc1cccc(-c2cccc(-c3nc4cccc(C)c4[nH]3)c2)c1` showed an XC50 of 267 nM.

As to `Cc1cccc2nc(-c3cccc(-c4cccc(NC(=O)c5ccoc5)c4)c3)[nH]c12`, the XC50 is 219 nM.

In the case of `COc1ccc(CNCc2ccc(-c3ccc(-c4nc5cc(F)ccc5[nH]4)cc3)cc2)cc1`, the XC50 worked out at 249 nM.

`CC(C)(CNCc1ccc(C(F)(F)F)cc1)c1nc(-c2ccnc(N)n2)c(-c2ccc(Cl)c(O)c2)[nH]1` registered an XC50 of 152 nM.

As to `Cc1cc2ncn(-c3ccnc(N4CCN(CCCN5CCCC5)CC4)n3)c2cc1C`, the XC50 came out at 828 nM.

In turn, `COc1cc2nc(N3CCC(CNCc4ccc(-c5ccc(C(F)(F)F)cc5)cc4)CC3)nc(N)c2cc1OC` displayed an XC50 of 86.9 nM.

`CCOc1ccc(Br)cc1/C=C/C(=O)Nc1ccc2c(c1)CCCN(C)C2` gave an XC50 of 1050 nM.

Compound `CCCCc1cc(NC2CCN(C)CC2)nc(Nc2ccccc2)n1` yielded an XC50 of 658 nM.

Compound `CCc1cn2c3c(cc(C(=O)N[C@@H](Cc4ccccc4)[C@H](O)CNC4CCCCC4)cc13)N(CC)S(=O)(=O)CC2` registered an XC50 of 31.4 nM.

The compound `CCn1c(C)cc(C=C2SC(=Nc3ccccc3)NC2=O)c1C` came in with an XC50 of 680 nM.

In the case of `COCCNCc1cccc(C#Cc2cc3ncnc(Nc4ccc(OCc5cccc(F)c5)c(Cl)c4)c3s2)n1`, the XC50 turned out to be 739 nM.

`Cc1ccc(CNC(=O)[C@H](CC(C)C)Nc2cc(C)nc(NCC3CCCCC3)n2)cc1` returned an XC50 of 926 nM.

In the case of `COc1cccc(C(=O)C2CC2CN(C)CC(O)c2cc(C)c(OC)cc2C)c1` (centres undefined), the XC50 came out at 1140 nM.

As for `C[C@H](Cc1ccc(OCCCOc2ccc(C[C@@H](C)NC[C@H](O)c3cccc(Cl)c3)cc2)cc1)NC[C@H](O)c1cccc(Cl)c1`, the XC50 came to 780 nM.

The compound `CS(=O)(=O)N1CC2(CCN(CCC(NC(=O)NCc3ccccc3Cl)c3ccc(Cl)c(Cl)c3)CC2)c2ccccc21` (centres undefined) yielded an XC50 of 1110 nM.

In turn, `CCOC(=O)c1c(NC(NC(=O)c2ccc(C(C)(C)C)cc2)C(Cl)(Cl)Cl)sc2c1CCCC2` (centres undefined) registered an XC50 of 809 nM.

`Cc1cc(N(C)C)nc(Nc2ccc(NC(=O)c3ccc(F)cc3)cc2)n1` showed an XC50 of 709 nM.

As for `CCCN(CCC)C(=O)c1cc(C(=O)N[C@@H](Cc2ccccc2)[C@H](O)CNC2CC2)cc(N2CCCCS2(=O)=O)c1`, the XC50 was found to be 156 nM.

For `CCOCn1c(-c2ccccc2)cc2c3c(N)nc(N)nc3ccc21`, the XC50 was determined as 186 nM.

Consider `Nc1nc(N)c2c(ccc3c2ccn3Cc2ccccc2)n1`, for which the XC50 is 3.2 nM.

`O=C(/C=C/c1ccc(Cl)c(Cl)c1)NCCCCCCN1CCCN(C(=O)Nc2cc(F)cc(F)c2)CC1` came in with an XC50 of 708 nM.

In turn, `CCNc1cc(C(=O)N[C@@H](Cc2ccccc2)[C@H](O)CN[C@@H]2CCc3ccccc32)cc(N2CCCCS2(=O)=O)c1` showed an XC50 of 555 nM.

On to `CS(=O)(=O)c1ccc2c(c1)CCN(CCC1CCC(NC(=O)C(=Cc3cccc(C#N)c3)c3ccc(-c4ccccc4)cc3)CC1)CC2` (centres undefined), for which the XC50 amounted to 839 nM.

With `Cc1cc(-c2cccc(CNCCc3ccc(Cl)cc3)c2)cnc1N`, the XC50 is 1100 nM.

Regarding `Cc1cc(-c2ccc(CNCc3ccc(F)cc3)cc2)ccc1S(=O)(=O)NCCN1CCCC1`, the XC50 was 719 nM.

Turning to `CC[C@H](C)CNC(=O)c1cncc(-c2ccc(CN(C)C3CCN(C)CC3)cc2)c1`, the XC50 was found to be 987 nM.

Compound `CN(C)c1cccc2c1nc(-c1ccco1)n2CCNCc1ccccc1` came in with an XC50 of 814 nM.

The compound `CCc1cc(-c2onc(C(F)(F)F)c2-c2ccccc2)c(O)cc1OC` showed an XC50 of 787 nM.

In turn, `COc1cc(NC(=O)c2nn(CCCN3CCC4(CC3)C(=O)NCN4c3ccccc3)cc2-c2ccc(Cl)c(Cl)c2)cc(OC)c1OC` showed an XC50 of 753 nM.

Turning to `Cc1ccc(C)c(N2CCN(Cc3ccccc3O)CC2)c1`, the XC50 stood at 940 nM.

The compound `Cc1ccc(-n2ncc(C(=O)Nc3cc(Cl)cc(Cl)c3)c2C2CCNCC2)cc1C` yielded an XC50 of 551 nM.

With `CCN(CC)c1ccc(C=CC(=O)NCCN2CCC(N(C)C3CCCCC3C)CC2)cc1` (centres undefined), the XC50 was determined as 965 nM.

For the compound `Nc1nccc2ccc(-c3cccc(OCc4ccccc4)c3)cc12`, the XC50 was 289 nM.

`CC(C)(C)OC(=O)NCc1ccc(Nc2nnc(-c3ccc(OCC(=O)NC[C@@H]4CC[C@H]5C[C@@H]4C5(C)C)c([N+](=O)[O-])c3)o2)cc1` registered an XC50 of 911 nM.

Regarding `COCCn1c(-c2cccc(Cl)c2)nn(-c2ccc([N+](=O)[O-])cc2C#N)c1=S`, the XC50 is 178 nM.

In turn, `CCCCCCn1c(Sc2ccc(C#N)c([N+](=O)[O-])c2)nnc1-c1ccc(OC)cc1` displayed an XC50 of 849 nM.

With `CC(OC(=O)c1ccc(C(=O)NCC2CC2)cc1)C(C)(C)C` (centres undefined), the XC50 was determined as 791 nM.
